Square brackets hold non-standard residues; d marks the D form. Peptide text beside a SMILES is read from it. * marks the point of attachment. pNA = O=[N+]([O-])c1ccc(N*)cc1; Pip = O=C(O)[C@@H]1CCCCN1; Nle = CCCC[C@H](N)C(=O)O; Orn = NCCC[C@H](N)C(=O)O
How the values were obtained:
[1] = molecular target: T1, factor Xa (Homo sapiens, UniProt P00742); assay: Kinetics of hydrolysis of substrates by human factor Xa in buffer A at 37° C. (Example 2, Table 2); format: biochemical; design: key to kcat: NH: not hydrolyzed by factor Xa
T1 construct: human factor Xa samples; gift of Dr. T. Lindhout (University of Limburg, Maastricht)
T1 sequence (P00742 41-179 limits assumed): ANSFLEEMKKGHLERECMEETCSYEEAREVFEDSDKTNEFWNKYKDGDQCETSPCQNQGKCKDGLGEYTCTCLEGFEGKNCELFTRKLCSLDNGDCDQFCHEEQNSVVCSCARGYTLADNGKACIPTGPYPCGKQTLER
T1 sequence (P00742 235-488 limits assumed): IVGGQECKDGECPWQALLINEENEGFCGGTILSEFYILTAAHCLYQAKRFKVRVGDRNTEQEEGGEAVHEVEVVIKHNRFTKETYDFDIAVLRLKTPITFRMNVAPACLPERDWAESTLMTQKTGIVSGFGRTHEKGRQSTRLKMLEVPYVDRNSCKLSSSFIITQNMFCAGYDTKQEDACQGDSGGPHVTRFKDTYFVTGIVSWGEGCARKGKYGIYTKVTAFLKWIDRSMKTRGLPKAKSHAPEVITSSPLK
Procedure: (§1) Kinetic parameters: The hydrolysis experiments were run in buffer A at 37° C. The liberation of p-nitroaniline was monitored at 405 nm in a dual wavelength (405-546 nm) spectrophotometer made in our workshop, using a personal computer for data recording. In a polystyrene microcuvette (total volume 500 μL), buffer A and substrate solution were added to obtain a final substrate concentration between 1 to 2000 μM. After 5 min of incubation at 37° C., enzyme solution was added to achieve a final concentration between 0.5 to 100 nM. The measurement was carried out at 37° C. in a thermostated cuvette-holder. The Michaelis constant (Km) and the catalytic constant (kcat) were obtained by measuring initial reaction velocities at different substrate concentrations. The data obtained were fitted by linear regression on the Michaelis-Menten equation.
(§2) Kinetic parameters: In a preliminary experiment, the substrate was hydrolyzed under the following conditions: enzyme concentration: 10 to 20 nM, substrate concentration: 200 μM in buffer A to get an impression of the initial velocity. […] The results are given in table 1 and 2 for thrombin and factor Xa respectively. The Km and kcat for each substrate were determined from the initial velocities measured for at least six substrate concentrations in the concentration range as given. The enzyme concentration used gives a good signal to noise ratio. The data given are obtained from one or two experiments. The data from table 1 and 2 were only used as the first selection criterion to get a rough impression of the hydrolysis behaviour. Notwithstanding the preliminary character of the measurement it was helpful in the design of the substrates of our interest.

[2] = molecular target: T2, human α-thrombin (Homo sapiens, UniProt P00734); assay: Kinetics of hydrolysis of substrates by human α-thrombin in buffer A at 37° C. (Example 2, Table 1); format: biochemical
T2 construct: Pure human α-thrombin; gift of Dr. T. Lindhout (University of Limburg, Maastricht)
Procedure: as §1, §2

SMILES: COC(=O)C(C)C(=O)NC(C)C(=O)NC(CCCNC(=N)N)C(=O)Nc1ccc([N+](=O)[O-])cc1.Cl (mixture of isomers) [MMZ-Ala-Arg-pNA.HCl]
- Km [1]: 7050 µM
- kcat [1]: 40.6 s⁻¹
- kcat /Km [1]: 5750 M/s
- Km [2]: 666 µM
- kcat [2]: 16.5 s⁻¹
- kcat /Km [2]: 24800 M/s

SMILES: COc1ccc(COC(=O)NCC(=O)N[C@@H](CCCNC(=N)N)C(=O)Nc2ccc([N+](=O)[O-])cc2)cc1.Cl [MZ-Gly-Arg-pNA.HCl]
- Km [1]: 4700 µM
- kcat [1]: 55.0 s⁻¹
- kcat /Km [1]: 11700 M/s
- Km [2]: 2540 µM
- kcat [2]: 12.3 s⁻¹
- kcat /Km [2]: 4850 M/s

SMILES: Cl.Cl.N=C(N)NCCC[C@H](NC(=O)[C@@H]1CCCN1C(=O)[C@H](N)Cc1ccccc1)C(=O)Nc1ccc([N+](=O)[O-])cc1 [2HCl.H-D-Phe-Pro-Arg-pNA]
- Km [1]: 693 µM
- kcat [1]: 18.7 s⁻¹
- kcat /Km [1]: 26900 M/s
- Km [2]: 3.16 µM
- kcat [2]: 28.4 s⁻¹
- kcat /Km [2]: 8.99e+06 M/s

SMILES: Cl.Cl.NCCC[C@H](NC(=O)[C@@H]1CCCCN1C(=O)[C@H](N)Cc1ccccc1)C(=O)Nc1ccc([N+](=O)[O-])cc1 [2HCl.H-D-Phe-Pip-Orn-pNA] (H-[dF]-[Pip]-[Orn]-pNA)
- Km [2]: 420 µM
- kcat [2]: 4.64 s⁻¹
- kcat /Km [2]: 11100 M/s

SMILES: C[C@@H](N)C(=O)N[C@@H](CCCNC(=N)N)C(=O)Nc1ccc([N+](=O)[O-])cc1.Cl.Cl [2HCl.H-D-Ala-Arg-pNA] (H-[dA]-Arg-pNA)
- Km [2]: 4080 µM
- kcat [2]: 0.096 s⁻¹
- kcat /Km [2]: 23.5 M/s

SMILES: CCCC[C@H](NC(=O)[C@@H]1CCCCN1C(=O)[C@H](N)Cc1ccccc1)C(=O)Nc1ccc([N+](=O)[O-])cc1.Cl [HCl.H-D-Phe-Pip-Nle-pNA] (H-[dF]-[Pip]-[Nle]-pNA)
- kcat [1]: NH
- Km [2]: 943 µM
- kcat [2]: 11.4 s⁻¹
- kcat /Km [2]: 12100 M/s

SMILES: COC(=O)CC(=O)N[C@H](C)C(=O)N[C@@H](CCCNC(=N)N)C(=O)Nc1ccc([N+](=O)[O-])cc1.Cl [MZ-D-Ala-Arg-pNA.HCl]
- Km [1]: 3080 µM
- kcat [1]: 0.088 s⁻¹
- kcat /Km [1]: 28.5 M/s
- Km [2]: 1330 µM
- kcat [2]: 0.059 s⁻¹
- kcat /Km [2]: 44.4 M/s

SMILES: Cl.Cl.NCCCC[C@H](NC(=O)[C@@H]1CCCCN1C(=O)[C@H](N)Cc1ccccc1)C(=O)Nc1ccc([N+](=O)[O-])cc1 [2HCl.H-D-Phe-Pip-Lys-pNA] (H-[dF]-[Pip]-Lys-pNA)
- Km [1]: 963 µM
- kcat [1]: 0.61 s⁻¹
- kcat /Km [1]: 631 M/s
- Km [2]: 65.1 µM
- kcat [2]: 118.3 s⁻¹
- kcat /Km [2]: 1.82e+06 M/s

SMILES: CC(C)[C@@H](N)C(=O)N[C@@H](CCCNC(=N)N)C(=O)Nc1ccc([N+](=O)[O-])cc1.Cl.Cl [2HCl.H-D-Val-Arg-pNA] (H-[dV]-Arg-pNA)
- Km [2]: 4250 µM
- kcat [2]: 0.28 s⁻¹
- kcat /Km [2]: 65.9 M/s

SMILES: COC(=O)CC(=O)N[C@@H](C)C(=O)N[C@@H](CCCNC(=N)N)C(=O)Nc1ccc([N+](=O)[O-])cc1.Cl [MZ-Ala-Arg-pNA.HCl]
- Km [1]: 5590 µM
- kcat [1]: 51.7 s⁻¹
- kcat /Km [1]: 9250 M/s
- Km [2]: 1540 µM
- kcat [2]: 107.5 s⁻¹
- kcat /Km [2]: 69900 M/s

SMILES: CCCC[C@H](NC(=O)[C@@H]1CCCN1C(=O)[C@H](N)Cc1ccccc1)C(=O)Nc1ccc([N+](=O)[O-])cc1.Cl [HCl.H-D-Phe-Pro-Nle-pNA] (H-[dF]-Pro-[Nle]-pNA)
- Km [2]: 87.9 µM
- kcat [2]: 6.66 s⁻¹
- kcat /Km [2]: 75400 M/s

SMILES: Cl.Cl.NCC(=O)N[C@@H](CCCN=C(N)N)C(=O)Nc1ccc([N+](=O)[O-])cc1 [2HCl.H-Gly-Arg-pNA] (H-Gly-Arg-pNA)
- Km [2]: 2280 µM
- kcat [2]: 0.107 s⁻¹
- kcat /Km [2]: 46.9 M/s

SMILES: C[C@H](N)C(=O)N[C@@H](CCCNC(=N)N)C(=O)Nc1ccc([N+](=O)[O-])cc1.Cl.Cl [2HCl.H-Ala-Arg-pNA] (H-Ala-Arg-pNA)
- Km [2]: 1140 µM
- kcat [2]: 0.074 s⁻¹
- kcat /Km [2]: 64.9 M/s
